Target: recombinant human ASK1 kinase (Homo sapiens (Human), UniProt Q99683)
Experiment: TR-FRET ASK1 (Apoptosis Signal-Regulating Kinase 1) kinase assay
Format: biochemical
Conditions: 4 nM ASK1, 1 μM STK3 peptide substrate, 100 μM ATP, HTRF detection; average of quadruplicate determination; read-out: IC50 (nM), activities of the compounds of Formula (I) to ASK1
Text: I. TR-FRET ASK1 (Apoptosis Signal-Regulating Kinase 1) Kinase Assay
To evaluate the inhibitory activity of compounds of the invention against ASK1 (Apoptosis Signal-regulating Kinase 1) kinase, its activity was examined using a TR-FRET ASK1 kinase assay which determined the amount of phosphate transferred to a peptide substrate from ATP.
Dephosphorylated recombinant human ASK1 kinase was from Gilead Sciences. Small molecule kinase inhibitor staurosporine (Catalogue #S6942) and dithiothreitol (DTT, catalogue #43815-5G) were obtained from Sigma Chemicals (St. Louis, Mo.). ATP (catalogue #7724) was from Affymetrix (Santa Clara, Calif.) and test compounds were from Gilead Sciences. HTRF KinEASE™-STK S3 kit was obtained from Cisbio (Bedford, Mass.). All other reagents were of the highest grade commercially available.
The assay measures the phosphorylation level of a biotinylated peptide substrate by the ASK1 kinase using HTRF detection. This is a competitive, time-resolved fluorescence resonance energy transfer (TR-FRET) immunoassay, based on HTRF® KinEASE™-STK manual from Cisbio. Test compound, 1 μM STK3 peptide substrate, 4 nM of ASK1 kinase were incubated with 10 mM MOP buffer, pH. 7.0 containing 10 mM Mg-acetate, 0.025% NP-40, 1 mM DTT, 0.05% BSA and 1.5% glycerol for 30 minutes then 100 μM ATP was added to start the kinase reaction and incubated for 3 hr. Peptide antibody labeled with 1× Eu^3+ Cryptate buffer containing 10 mM EDTA and 125 nM Streptavidin XL665 were added to stop the reaction and phosphorylated peptide substrate was detected using Envision 2103 Multilabeled reader from PerkinElmer. The fluorescence was measured at 615 nm (Cryptate) and 665 nm (XL665) and a ratio of 665 nm/615 nm was calculated for each well. The resulting TR-FRET level (a ratio of 665 nm/615 nm) was proportional to the phosphorylation level. Under these assay conditions, the degree of phosphorylation of peptide substrate was linear with time and concentration for the enzyme. The assay system yielded consistent results with regard to Km and specific activities for the enzyme. For inhibition experiments (IC50 values), activities were performed with constant concentrations of ATP, peptide and several fixed concentrations of inhibitors. Staurosporine, the nonselective kinase inhibitor, was used as the positive control. All enzyme activity data are reported as an average of quadruplicate determination.
The IC50 values were calculated following equation: y=Range/{1+(x/IC50)^s}+Background where x and y represent the concentration of inhibitors and enzyme activity, respectively. Enzyme activity is expressed as the amount of Phosphate incorporated into substrate peptide from ATP. Range is the maximum y range (no inhibitor, DMSO control) and s is a slope factor.

Sequence of recombinant human ASK1 kinase (Q99683 whole entry): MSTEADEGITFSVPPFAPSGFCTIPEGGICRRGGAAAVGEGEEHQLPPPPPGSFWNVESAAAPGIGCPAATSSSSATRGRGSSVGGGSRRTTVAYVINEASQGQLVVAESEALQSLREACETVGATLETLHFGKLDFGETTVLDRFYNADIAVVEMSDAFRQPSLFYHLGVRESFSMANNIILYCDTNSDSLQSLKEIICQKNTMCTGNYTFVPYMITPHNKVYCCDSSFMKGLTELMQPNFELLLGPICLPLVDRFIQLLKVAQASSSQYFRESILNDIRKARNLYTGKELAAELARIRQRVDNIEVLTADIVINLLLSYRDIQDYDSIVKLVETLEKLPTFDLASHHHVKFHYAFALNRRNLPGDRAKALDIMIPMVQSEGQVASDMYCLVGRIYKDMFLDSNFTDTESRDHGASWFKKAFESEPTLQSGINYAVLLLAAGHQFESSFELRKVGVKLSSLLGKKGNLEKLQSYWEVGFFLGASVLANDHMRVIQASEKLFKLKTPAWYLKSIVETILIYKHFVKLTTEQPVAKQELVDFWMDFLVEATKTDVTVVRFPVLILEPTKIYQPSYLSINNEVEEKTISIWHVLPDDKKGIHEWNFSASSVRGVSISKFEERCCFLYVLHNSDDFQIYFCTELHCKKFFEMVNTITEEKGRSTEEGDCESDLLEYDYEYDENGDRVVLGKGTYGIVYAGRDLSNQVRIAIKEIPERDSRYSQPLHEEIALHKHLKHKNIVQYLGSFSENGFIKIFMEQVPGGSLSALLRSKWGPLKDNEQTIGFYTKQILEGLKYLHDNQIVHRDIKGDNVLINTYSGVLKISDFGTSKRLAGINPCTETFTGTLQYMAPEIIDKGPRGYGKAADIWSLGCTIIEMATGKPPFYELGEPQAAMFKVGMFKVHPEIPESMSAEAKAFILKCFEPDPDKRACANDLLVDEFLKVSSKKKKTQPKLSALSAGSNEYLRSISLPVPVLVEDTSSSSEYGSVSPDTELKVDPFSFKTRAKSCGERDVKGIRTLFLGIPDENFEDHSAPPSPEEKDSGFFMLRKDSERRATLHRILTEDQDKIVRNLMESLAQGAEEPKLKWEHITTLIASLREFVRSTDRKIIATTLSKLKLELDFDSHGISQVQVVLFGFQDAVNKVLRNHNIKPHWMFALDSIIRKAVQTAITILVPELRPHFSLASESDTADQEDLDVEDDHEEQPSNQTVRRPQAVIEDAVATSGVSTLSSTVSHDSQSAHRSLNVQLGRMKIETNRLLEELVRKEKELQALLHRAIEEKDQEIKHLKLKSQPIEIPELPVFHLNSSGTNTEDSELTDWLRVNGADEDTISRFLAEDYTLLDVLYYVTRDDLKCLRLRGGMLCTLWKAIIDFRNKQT

Row | IC50 | Compound
1 | 2.7 nM | O=C(Nc1csc(-c2nncn2C2CC2)n1)c1cc(-n2cnc(C3CC3)c2)c(N2CCN3CCCC3C2)cn1 (stereo not shown) [Compound 15, 5-(3,4,6,7,8,8a-hexahydro-1H-pyrrolo[1,2-a]pyrazin-2-yl)-4-(4-cyclopropylimidazol-1-yl)-N-[2-(4-cyclopropyl-1,2,4-triazol-3-yl)-1,3-thiazol-4-yl]pyridine-2-carboxamide]
2 | 1.4 nM | C[C@H](n1cnnc1-c1nc(NC(=O)c2cc(-n3cnc(C4CC4)c3)c(N3CC(C)(C#N)C3)cn2)cs1)C(F)(F)F [Compound 24, (S)-5-(3-cyano-3-methylazetidin-1-yl)-4-(4-cyclopropyl-1H-imidazol-1-yl)-N-(2-(4-(1,1,1-trifluoropropan-2-yl)-4H-1,2,4-triazol-3-yl)thiazol-4-yl)picolinamide]
3 | 1.9 nM | COC1CCN(c2cnc(C(=O)Nc3csc(-c4nncn4[C@@H](C)C(F)(F)F)n3)cc2-n2cnc(C3CC3)c2)C1 (stereo partly drawn) [Compound 28, 4-(4-cyclopropyl-1H-imidazol-1-yl)-5-(3-methoxypyrrolidin-1-yl)-N-(2-(4-((S)-1,1,1-trifluoropropan-2-yl)-4H-1,2,4-triazol-3-yl)thiazol-4-yl)picolinamide]
4 | 1.2 nM | C[C@H](n1cnnc1-c1nc(NC(=O)c2cc(-n3cnc(C4CC4)c3)c(N3CCN(CC(F)(F)F)CC3)cn2)cs1)C(F)(F)F [Compound 33, (S)-4-(4-cyclopropyl-1H-imidazol-1-yl)-5-(4-(2,2,2-trifluoroethyl)piperazin-1-yl)-N-(2-(4-(1,1,1-trifluoropropan-2-yl)-4H-1,2,4-triazol-3-yl)thiazol-4-yl)picolinamide]
